# Assay results as given in patent publication US20250144054A1, “SMALL MOLECULE STAT3 INHIBITOR FOR TREATING TRIPLE NEGATIVE BREAST CANCER” (UNIVERSITY OF MARYLAND, BALTIMORE, priority 2022, published 2025).
# How the values were obtained:
# [1] = tested on: P-STAT3 (Y705); test: Immunofluorescence staining of P-STAT3 (Y705) localization in SUM159 cells; format: cell-based, human; conditions: 8 hours, vs DMSO
# Experimental: (§1) (A) The chemical structures of LLL12B and LLL12. The carbamate ester bond of LLL12B is hydrolytically cleaved by the tumor-associated plasmin to release LLL12. (B) SUM159 cells were seeded in a 6-well plate and treated with LLL12B for 8 hours. Cells were stained with Phospho-Stat3 (Tyr705) and DAPI (indicated by arrows). Green: P-STAT3 (Y705); Blue: DAPI. T47D (C) and MDA-MB-231 (D) breast cancer cells were pretreated with DMSO or LLL12B in a serum-free medium for 2 hours and stimulated with 50 ng/ml of IL-6, IFN-γ, or EGF for additional 30 minutes. Cells were collected and analyzed by Western blot. GAPDH served as a protein loading control.
# Immunofluorescence staining. SUM159 cells were seeded in a 6-well plate and treated with LLL12B or DMSO for 8 hours. Cells were fixed with 4% paraformaldehyde (PFA) for 15 minutes at room temperature and then permeabilized with ice-cold 100% methanol for 10 minutes at −20° C. After blocking in 3% Bovine Serum Albumin (BSA)/0.1% Triton X-100, cells were incubated with rabbit anti-Phospho-Stat3 (Tyr705) (1:100, Cell Signaling Technology, Danvers, MA, USA) overnight at 4° C., then with secondary antibody for 1 hour at room temperature. Cells were photographed using a Leica fluorescence microscope (Leica Microsystems Inc, Deerfield, IL, USA).
# [2] = tested on: ERK; test: EGF induced ERK phosphorylation, Western blot, T47D cells; format: cell-based, human; conditions: pretreated 2 hours, 50 ng/ml EGF 30 minutes
# Experimental: as §1
# Western blot. Cells were collected and total protein was extracted using cell lysis buffer (Cell Signaling Technology, Danvers, MA, USA). Protein concentration was determined using the Pierce BCA Protein Assay Kit (Thermo Fisher Scientific, Waltham, MA, USA) according to the manufacturer's instructions. Equal amounts of protein were separated by 10% SDS-PAGE gels and transferred to PVDF membranes. Membranes were blocked in 5% non-fat milk at room temperature and probed with specific antibodies P-STAT3 (Y705), STAT3, Cyclin D1, Cleaved Caspase-3, P-STAT1 (Y701), STAT1, P-ERK, ERK or GAPDH (1:1000, Cell Signaling Technology, Danvers, MA, USA) at 4° C. overnight. […]
# [3] = tested on: caspase-3/7; test: Caspase-3/7 activity assay, SUM159 cells; format: cell-based, human; conditions: SUM159, 5 hours, vs DMSO
# Experimental: Caspase-3/7 activity assay. The Caspase-3/7 Fluorescence Assay Kit (Cayman, Ann Arbor, MI, USA) was used to detect the activation of caspase-3/7 and the assay was performed according to the manufacturer's instructions. Briefly, MDA-MB-231, SUM159, and 4T1 cells were seeded in a 96-well plate in triplicate. After overnight incubation, cells were treated with either LLL12B or DMSO for 5 hours. Cells were lysed and processed to measure caspase-3/7 activity and the fluorescence intensity was read (excitation=485 nm; emission=535 nm).
# [4] = tested on: 4T1 cells; test: Colony formation assay, 4T1 cells; format: cell-based, murine; conditions: 4T1, 24 hours treatment, 7 days drug-free, vs DMSO
# Experimental: Colony formation assay. MDA-MB-231, SUM159, and 4T1 cells were seeded in a 6-well plate at a density of 1000 cells/well and treated with DMSO or LLL12B for 24 hours, and then cultured in a drug-free culture medium for 7 days. Colonies were fixed with methanol for 30 min and stained with 1% crystal violet in 25% methanol for 2 hours at room temperature.
# [5] = tested on: MDA-MB-231 cells; test: Wound healing assay, MDA-MB-231 cells; format: cell-based, human; conditions: MDA-MB-231, vs DMSO
# Experimental: Wound healing assay. MDA-MB-231, SUM159, and 4T1 cells were seeded in a 6-well plate and cultured until fully confluent. A straight scratch crossing the monolayer was created using a 200 μl pipette tip and images of scratched areas were taken. Next, cells were treated with DMSO or LLL12B. Then, images were taken until the scratch of DMSO-treated cells was closed and the relative migration (%) was calculated.
# Given the relevance between cancer cell migration and metastasis, cell migration was evaluated using wound healing assay following LLL12B and Talazoparib treatment.
# In FIG. 12, L: LLL12B; T: Talazoparib; L0.5:0.5 μM LLL12B; L0.25:0.25 μM LLL12B; T0.5:0.5 μM Talazoparib; T10: 10 μM Talazoparib. In FIG. 13, L: LLL12B; T: Talazoparib; L0.5:0.5μ M LLL12B; T10: 10μ M Talazoparib; T20: 20μ M Talazoparib. In FIG. 14, L: LLL12B; T: Talazoparib; L0.5:0.5μ M LLL12B; T10: 10μ M Talazoparib; T20: 20μ M Talazoparib.
# L: LLL12B; A: Abemaciclib; L0.5:0.5 μM LLL12B; A2.5:2.5 μM Abemaciclib; A1: 1 μM Abemaciclib
# [6] = tested on: HPAC cells; test: Wound healing assay, HPAC cells; format: cell-based, human; conditions: approximate 24 hours
# Experimental: The inhibitory effects on cell migration by LLL12B in pancreatic cancer cells was also examined. The human HPAC pancreatic cancer cells were seeded and allowed to attach for 24 hours. Then cells were treated with different concentrations of LLL12B for approximate 24 hours and the cell migration was determined by wound healing assay.
# [7] = tested on: SUM149 xenograft; test: SUM149 xenograft model in vivo
# Text: Next, the efficacy of LLL12B and Talazoparib was examined in the SUM149 xenograft model in vivo. […] V: Vehicle; L: LLL12B; T: Talazoparib. Western blot analysis further confirmed the inhibition of p-STAT3 in LLL12B and combination treated tumors (FIG. 16D).
# [8] = refs [25,28]; cited from earlier work
# [9] = tested on: STAT3; conditions: human medulloblastoma cells, refs [25,31]; cited from earlier work
# [10] = tested on: ovarian cancer cells; conditions: ref [45]; cited from earlier work
smiles,measurement,setting,value
CN(C)C(=O)Oc1cccc2c1C(=O)c1cccc(S(N)(=O)=O)c1C2=O [LLL12B],distribution of P-STAT3 (Y705) in the nucleus,[1],blocked
same,induction of P-ERK stimulated by EGF,[2],did not inhibit
same,activation of caspase-3/7,[3],induced the activation
same,colony numbers,[4],significant reduction
same,wound closure (cell migration),[5],effectively inhibited
same,cell migration,[6],significantly inhibits
same,"p-STAT3 in tumors, Western blot",[7],inhibition
same,in vivo pharmacokinetic properties compared to LLL12,[8],superior
same,IL-6 induced STAT3 phosphorylation,[9],inhibited
same,sensitization to paclitaxel and cisplatin,[10],sensitized
